Measured values reported in publication PMC10141580, “Cyclic Dichalcogenides Extend the Reach of Bioreductive Prodrugs to Harness Thiol/Disulfide Oxidoreductases: Applications to seco-Duocarmycins Targeting the Thioredoxin System” (ACS Central Science, 2023).
Several values for one entry are separate records, joined by “and”; a condition that tells them apart may be missing. Identical values can stand only once. Like-named read-outs stand apart in the source and are kept apart here.

Test system: panel of 140 standard cancer cell lines
Assay: ProliFiler-140 cancer cell line screen (CellTiterGlo, 72 h)
Assay type: cell-based
Method: Incubations were performed for 72 h before automated viability readout with CellTiterGlo (Figure 8).
End of Figure S11 (part 5 of 5): ProliFiler-140 cancer cell line screening for cytotoxicity of the prodrugs.
8-data-point dose response curves from CellTiter-Glo® viability readout.
ProliFiler-140 cell line panel part V

## COc1cc2cc(C(=O)N3C[C@@H](CCl)c4c3cc(OC(=O)N(CCC(=O)N3CCN(C)CC3)[C@H]3CCSSC3)c3ccccc43)[nH]c2c(OC)c1OC [P-SS60-CBI-TMI]
786-O (Kidney)
  Reductive Activation Index: 5.22
786-O (Kidney), read-out: IC50 [M] (ProliFiler-140)
  IC50: 2.26e-08 M and 2.3e-08 M
A172 (Brain)
  Reductive Activation Index: 4.87
A172 (Brain), read-out: IC50 [M] (ProliFiler-140)
  IC50: 1.18e-07 M and 1.2e-07 M
A375 (Skin)
  Reductive Activation Index: 5.08
A375 (Skin), read-out: IC50 [M] (ProliFiler-140)
  IC50: 3.23e-08 M and 3.2e-08 M
A427 (Lung)
  Reductive Activation Index: 5.0 and 5.03
A427 (Lung), read-out: IC50 [M] (ProliFiler-140)
  IC50: 1.6e-07 M and 1.64e-07 M
A431 (Skin), read-out: IC50 [M] (ProliFiler-140)
  IC50: 4.05e-08 M and 4e-08 M
A498 (Kidney)
  Reductive Activation Index: 5.96
A498 (Kidney), read-out: IC50 [M] (ProliFiler-140)
  IC50: 5.04e-08 M and 5e-08 M
A498, read-out: IC50
  IC50: 5e-08 M
A549 (Lung)
  Reductive Activation Index: 6.4
A549 (Lung), read-out: IC50 [M] (ProliFiler-140)
  IC50: 1.2e-07 M
A549, read-out: IC50
  IC50: 1.2e-07 M
A2058 (Skin), read-out: IC50 [M] (ProliFiler-140)
  IC50: 1.5e-08 M
A2780 (Ovary), read-out: IC50 [M] (ProliFiler-140)
  IC50: 1.2e-08 M
AsPC-1 (Pancreas)
  Reductive Activation Index: 8.2
AsPC-1 (Pancreas), read-out: IC50 [M] (ProliFiler-140)
  IC50: 2.6e-07 M and 2.63e-07 M
BEN (Lung)
  Reductive Activation Index: 13
BEN (Lung), read-out: IC50 [M] (ProliFiler-140)
  IC50: 1.1e-07 M and 1.12e-07 M
BT-20 (Breast)
  Reductive Activation Index: 4.6
BT-20 (Breast), read-out: IC50 [M] (ProliFiler-140)
  IC50: 2.4e-07 M and 2.42e-07 M
BxPC-3
  fold-change of IC50 relative to P-CC60: 6
BxPC-3 (Pancreas), read-out: IC50 [M] (ProliFiler-140)
  IC50: 1.08e-07 M and 1.1e-07 M
COLO 205, read-out: IC50
  IC50: 1.6e-07 M
COR-L279 (Lung), read-out: IC50 [M] (ProliFiler-140)
  IC50: 1.4e-08 M and 1.43e-08 M
COV434 (Ovary), read-out: IC50 [M] (ProliFiler-140)
  IC50: 2.2e-08 M and 2.24e-08 M
Caki-1 (Kidney)
  Reductive Activation Index: 5.23
Caki-1 (Kidney), read-out: IC50 [M] (ProliFiler-140)
  IC50: 6.29e-08 M and 6.3e-08 M
Caki-2 (Kidney)
  Reductive Activation Index: 7.2
Caki-2 (Kidney), read-out: IC50 [M] (ProliFiler-140)
  IC50: 2.1e-07 M
Calu-6 (Lung)
  Reductive Activation Index: 6.64
Calu-6 (Lung), read-out: IC50 [M] (ProliFiler-140)
  IC50: 5.16e-08 M and 5.2e-08 M
Colo 205 (Colon)
  Reductive Activation Index: 4.9
Colo 205 (Colon), read-out: IC50 [M] (ProliFiler-140)
  IC50: 1.6e-07 M and 1.57e-07 M
DLD-1 (Colon)
  Reductive Activation Index: 4.69 and 4.7
DLD-1 (Colon), read-out: IC50 [M] (ProliFiler-140)
  IC50: 1.69e-07 M and 1.7e-07 M
DU-145 (Prostate), read-out: IC50 [M] (ProliFiler-140)
  IC50: 3.6e-08 M and 3.58e-08 M
DV90 (Lung), read-out: IC50 [M] (ProliFiler-140)
  IC50: 1.3e-08 M and 1.32e-08 M
Detroit562 (Head/Neck), read-out: IC50 [M] (ProliFiler-140)
  IC50: 4.27e-08 M and 4.3e-08 M
EFM-19 (Breast)
  Reductive Activation Index: 4.2 and 4.18
EFM-19 (Breast), read-out: IC50 [M] (ProliFiler-140)
  IC50: 2.3e-07 M
EFM-192A (Breast)
  Reductive Activation Index: 5.9
EFM-192A (Breast), read-out: IC50 [M] (ProliFiler-140)
  IC50: 3e-07 M and 3.01e-07 M
EFO-27 (Ovary)
  Reductive Activation Index: 5.7
EFO-27 (Ovary), read-out: IC50 [M] (ProliFiler-140)
  IC50: 1.6e-07 M and 1.58e-07 M
EPLC-272H (Lung), read-out: IC50 [M] (ProliFiler-140)
  IC50: 7.9e-08 M
H4 (Brain)
  Reductive Activation Index: 5.36
H4 (Brain), read-out: IC50 [M] (ProliFiler-140)
  IC50: 1.51e-08 M and 1.5e-08 M
H460 (Lung)
  Reductive Activation Index: 7.2
H460 (Lung), read-out: IC50 [M] (ProliFiler-140)
  IC50: 7.1e-09 M and 7.11e-09 M
H1299 (Lung), read-out: IC50 [M] (ProliFiler-140)
  IC50: 7.85e-08 M and 7.9e-08 M
H2228 (Lung), read-out: IC50 [M] (ProliFiler-140)
  IC50: 5.68e-08 M and 5.7e-08 M
HCC38 (Breast), read-out: IC50 [M] (ProliFiler-140)
  IC50: 1.9e-08 M
HCC202 (Breast)
  Reductive Activation Index: 7.1
HCC202 (Breast), read-out: IC50 [M] (ProliFiler-140)
  IC50: 1.3e-07 M and 1.26e-07 M
HCC827 (Lung)
  Reductive Activation Index: 7.3
HCC827 (Lung), read-out: IC50 [M] (ProliFiler-140)
  IC50: 1.9e-07 M
HCC 1569 (Breast)
  Reductive Activation Index: 8.2
HCC 1569 (Breast), read-out: IC50 [M] (ProliFiler-140)
  IC50: 1.2e-07 M and 1.21e-07 M
HCT116 (Colon), read-out: IC50 [M] (ProliFiler-140)
  IC50: 6.94e-08 M and 6.9e-08 M
HCT-15 (Colon)
  Reductive Activation Index: 5.23
HCT-15 (Colon), read-out: IC50 [M] (ProliFiler-140)
  IC50: 1.04e-07 M and 1e-07 M
HCT-15, read-out: IC50
  IC50: 1e-07 M
HEC-1-A (Endometrium)
  Reductive Activation Index: 6.5
HEC-1-A (Endometrium), read-out: IC50 [M] (ProliFiler-140)
  IC50: 2.8e-07 M and 2.85e-07 M
HEC-1-B (Endometrium)
  Reductive Activation Index: 4.0
HEC-1-B (Endometrium), read-out: IC50 [M] (ProliFiler-140)
  IC50: 8.3e-07 M and 8.33e-07 M
HL-60 (Blood), read-out: IC50 [M] (ProliFiler-140)
  IC50: 1.8e-08 M and 1.83e-08 M
HT-29 (Colon)
  Reductive Activation Index: 5.3
HT-29 (Colon), read-out: IC50 [M] (ProliFiler-140)
  IC50: 1.9e-07 M and 1.88e-07 M
HT-29, read-out: IC50
  IC50: 1.9e-07 M
HT-1080 (Fibrosarcoma), read-out: IC50 [M] (ProliFiler-140)
  IC50: 5.01e-08 M and 5e-08 M
HeLa (Ovary)
  Reductive Activation Index: 13.55
Hep3B2.1-7 (Liver)
  Reductive Activation Index: 5.6
Hep3B2.1-7 (Liver), read-out: IC50 [M] (ProliFiler-140)
  IC50: 2.4e-07 M and 2.37e-07 M
Hs 746T (Stomach)
  Reductive Activation Index: 7.7
Hs 746T (Stomach), read-out: IC50 [M] (ProliFiler-140)
  IC50: 1.3e-07 M and 1.29e-07 M
HuH7 (Liver)
  Reductive Activation Index: 5.70
HuH7 (Liver), read-out: IC50 [M] (ProliFiler-140)
  IC50: 1.14e-07 M and 1.1e-07 M
Hutu 80 (Duodenum)
  Reductive Activation Index: 5.42 and 5.4
Hutu 80 (Duodenum), read-out: IC50 [M] (ProliFiler-140)
  IC50: 9.92e-09 M and 9.9e-09 M
Ishikawa (Endometrium), read-out: IC50 [M] (ProliFiler-140)
  IC50: 7.1e-09 M and 7.07e-09 M
J82 (Bladder), read-out: IC50 [M] (ProliFiler-140)
  IC50: 9.88e-08 M and 9.9e-08 M
JIMT-1 (Breast)
  Reductive Activation Index: 8.4
JIMT-1 (Breast), read-out: IC50 [M] (ProliFiler-140)
  IC50: 1.9e-07 M
JVM-3 (Blood), read-out: IC50 [M] (ProliFiler-140)
  IC50: 8.72e-09 M and 8.7e-09 M
Jurkat (Blood), read-out: IC50 [M] (ProliFiler-140)
  IC50: 1.64e-08 M and 1.6e-08 M
K562 (Blood)
  Reductive Activation Index: 5.3
K562 (Blood), read-out: IC50 [M] (ProliFiler-140)
  IC50: 2.1e-07 M and 2.07e-07 M
KARPAS 299 (Blood)
  Reductive Activation Index: 4.42
KARPAS 299 (Blood), read-out: IC50 [M] (ProliFiler-140)
  IC50: 1.6e-07 M
KG-1 (Blood)
  Reductive Activation Index: 4.67
KG-1 (Blood), read-out: IC50 [M] (ProliFiler-140)
  IC50: 1.33e-07 M and 1.3e-07 M
KG-1 a (Blood)
  Reductive Activation Index: 5.26
KG-1 a (Blood), read-out: IC50 [M] (ProliFiler-140)
  IC50: 1.05e-07 M and 1e-07 M
KMS-12-BM (Blood), read-out: IC50 [M] (ProliFiler-140)
  IC50: 6.64e-08 M and 6.6e-08 M
Kato III (Stomach)
  Reductive Activation Index: 4.3
Kato III (Stomach), read-out: IC50 [M] (ProliFiler-140)
  IC50: 3.7e-07 M and 3.72e-07 M
LN229 (Brain)
  Reductive Activation Index: 5.21
LN229 (Brain), read-out: IC50 [M] (ProliFiler-140)
  IC50: 1.39e-07 M and 1.4e-07 M
LOU-NH91 (Lung), read-out: IC50 [M] (ProliFiler-140)
  IC50: 7.5e-08 M and 7.46e-08 M
LOVO (Colon), read-out: IC50 [M] (ProliFiler-140)
  IC50: 3.37e-08 M and 3.4e-08 M
LP-1 (Blood), read-out: IC50 [M] (ProliFiler-140)
  IC50: 1.7e-07 M and 1.69e-07 M
LnCap (Prostate)
  Reductive Activation Index: 8.0
LnCap (Prostate), read-out: IC50 [M] (ProliFiler-140)
  IC50: 1.1e-07 M and 1.12e-07 M
M07e (Blood)
  Reductive Activation Index: 8.55
M07e (Blood), read-out: IC50 [M] (ProliFiler-140)
  IC50: 1.62e-08 M and 1.6e-08 M
MCAS (Ovary)
  Reductive Activation Index: 6.5 and 6.53
MCAS (Ovary), read-out: IC50 [M] (ProliFiler-140)
  IC50: 1.3e-07 M and 1.25e-07 M
MCF-7 (Breast), read-out: IC50 [M] (ProliFiler-140)
  IC50: 4.5e-08 M and 4.48e-08 M
MCF-7, read-out: IC50
  IC50: 4.5e-08 M
MDA MB 231 (Breast)
  Reductive Activation Index: 4.24
MDA MB 231 (Breast), read-out: IC50 [M] (ProliFiler-140)
  IC50: 1.74e-07 M and 1.7e-07 M
MDA MB 435 (Skin)
  Reductive Activation Index: 6.1
MDA MB 435 (Skin), read-out: IC50 [M] (ProliFiler-140)
  IC50: 1.8e-07 M and 1.76e-07 M
MDA-MB-468 (Breast), read-out: IC50 [M] (ProliFiler-140)
  IC50: 3.1e-08 M
MDA-MB-468, read-out: IC50
  IC50: 3.1e-08 M
MEC-1 (Blood), read-out: IC50 [M] (ProliFiler-140)
  IC50: 1.5e-08 M and 1.51e-08 M
